Test results as given in the kinase profiling compilation of Christmann-Franck et al. (2016).

Key:
Test in all cases: KINOMEscan competition binding
Details in all cases: compound 10.0 µM
CAMK1G (human) = CAMK1G (human) (UniProt Q96NX5)
SRPK2 (human) = SRPK2 (human) (UniProt P78362)
MAP4K2 (human) = MAP4K2 (human) (UniProt Q12851)
CSNK1E (human) = CSNK1E (human) (UniProt P49674)
ACVR2A (human) = ACVR2A (human) (UniProt P27037)
CLK2 (human) = CLK2 (human) (UniProt P49760)
TSSK1B (human) = TSSK1B (human) (UniProt Q9BXA7)
MARK2 (human) = MARK2 (human) (UniProt Q7KZI7)
CDK13 (human) = CDK13 (human) (UniProt Q14004)
PTK6 (human) = PTK6 (human) (UniProt Q13882)
Sequence of PTK6 (human) (Q13882 whole entry, looked up): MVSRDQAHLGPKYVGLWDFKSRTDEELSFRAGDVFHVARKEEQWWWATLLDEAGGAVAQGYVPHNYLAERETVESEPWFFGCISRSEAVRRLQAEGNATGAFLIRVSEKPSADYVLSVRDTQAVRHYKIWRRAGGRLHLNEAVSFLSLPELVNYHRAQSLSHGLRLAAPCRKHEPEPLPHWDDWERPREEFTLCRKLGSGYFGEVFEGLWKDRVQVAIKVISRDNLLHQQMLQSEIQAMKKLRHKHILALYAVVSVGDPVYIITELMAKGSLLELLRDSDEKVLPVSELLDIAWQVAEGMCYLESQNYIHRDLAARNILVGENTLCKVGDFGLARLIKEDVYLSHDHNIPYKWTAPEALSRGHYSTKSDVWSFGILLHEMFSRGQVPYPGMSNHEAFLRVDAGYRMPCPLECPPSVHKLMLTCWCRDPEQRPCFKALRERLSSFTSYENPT

PDGFRB (human) = PDGFRB (human) (UniProt P09619)
BLK (human) = BLK (human) (UniProt P51451)
SRPK3 (human) = SRPK3 (human) (UniProt Q9UPE1)
PTK2 (human) = PTK2 (human) (UniProt Q05397)
ERBB3 (human) = ERBB3 (human) (UniProt P21860)
AAK1 (human) = AAK1 (human) (UniProt Q2M2I8)
Sequence of AAK1 (human) (Q2M2I8 whole entry, looked up): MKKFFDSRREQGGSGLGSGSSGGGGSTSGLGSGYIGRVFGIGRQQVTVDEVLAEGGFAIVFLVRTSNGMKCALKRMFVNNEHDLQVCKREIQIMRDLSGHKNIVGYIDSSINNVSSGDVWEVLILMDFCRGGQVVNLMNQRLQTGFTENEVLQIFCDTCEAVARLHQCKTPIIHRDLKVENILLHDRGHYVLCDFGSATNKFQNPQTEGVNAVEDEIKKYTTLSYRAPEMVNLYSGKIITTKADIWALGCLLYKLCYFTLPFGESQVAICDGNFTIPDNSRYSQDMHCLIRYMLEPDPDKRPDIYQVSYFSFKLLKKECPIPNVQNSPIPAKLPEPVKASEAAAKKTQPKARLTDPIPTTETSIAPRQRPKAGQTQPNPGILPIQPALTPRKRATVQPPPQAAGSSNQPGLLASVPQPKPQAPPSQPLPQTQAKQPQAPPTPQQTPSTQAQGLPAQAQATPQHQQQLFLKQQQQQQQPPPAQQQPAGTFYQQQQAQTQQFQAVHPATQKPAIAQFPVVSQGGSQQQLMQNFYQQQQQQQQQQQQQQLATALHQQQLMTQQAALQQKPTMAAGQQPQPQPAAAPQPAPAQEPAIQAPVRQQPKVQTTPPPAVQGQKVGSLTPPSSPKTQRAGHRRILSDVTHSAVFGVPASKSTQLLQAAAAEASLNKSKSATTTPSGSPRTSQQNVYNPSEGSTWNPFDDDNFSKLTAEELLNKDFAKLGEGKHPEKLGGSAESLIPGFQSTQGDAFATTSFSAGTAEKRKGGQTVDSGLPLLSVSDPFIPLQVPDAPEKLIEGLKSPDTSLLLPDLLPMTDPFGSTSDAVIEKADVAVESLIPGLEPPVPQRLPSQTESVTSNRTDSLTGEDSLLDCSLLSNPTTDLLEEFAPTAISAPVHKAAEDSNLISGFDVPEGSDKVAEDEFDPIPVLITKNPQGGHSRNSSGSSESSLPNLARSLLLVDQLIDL

NTRK3 (human) = NTRK3 (human) (UniProt Q16288)
Sequence of NTRK3 (human) (Q16288 whole entry, looked up): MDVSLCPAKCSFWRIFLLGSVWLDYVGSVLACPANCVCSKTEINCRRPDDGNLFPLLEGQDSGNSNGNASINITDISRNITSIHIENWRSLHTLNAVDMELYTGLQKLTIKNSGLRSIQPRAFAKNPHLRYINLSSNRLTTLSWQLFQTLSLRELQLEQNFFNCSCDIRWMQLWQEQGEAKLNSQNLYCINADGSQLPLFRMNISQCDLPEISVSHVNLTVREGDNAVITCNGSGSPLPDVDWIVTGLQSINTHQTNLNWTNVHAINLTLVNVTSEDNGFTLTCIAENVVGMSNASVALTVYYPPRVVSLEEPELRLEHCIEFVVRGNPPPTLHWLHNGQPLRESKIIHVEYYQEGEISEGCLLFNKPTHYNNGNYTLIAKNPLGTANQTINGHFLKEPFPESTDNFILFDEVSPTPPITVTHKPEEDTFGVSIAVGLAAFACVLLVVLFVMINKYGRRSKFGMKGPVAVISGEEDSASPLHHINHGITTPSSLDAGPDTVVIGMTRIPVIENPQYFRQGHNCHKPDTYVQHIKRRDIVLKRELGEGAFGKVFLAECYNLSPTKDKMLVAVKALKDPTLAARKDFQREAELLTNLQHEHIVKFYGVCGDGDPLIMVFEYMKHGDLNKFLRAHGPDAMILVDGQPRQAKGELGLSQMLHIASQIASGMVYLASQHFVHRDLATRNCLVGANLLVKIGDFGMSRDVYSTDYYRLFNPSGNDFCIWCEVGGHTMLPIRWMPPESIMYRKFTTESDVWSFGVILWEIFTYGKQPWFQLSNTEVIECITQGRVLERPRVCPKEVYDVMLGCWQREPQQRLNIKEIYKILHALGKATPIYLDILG

AURKB (human) = AURKB (human) (UniProt Q96GD4)
Sequence of AURKB (human) (Q96GD4 whole entry, looked up): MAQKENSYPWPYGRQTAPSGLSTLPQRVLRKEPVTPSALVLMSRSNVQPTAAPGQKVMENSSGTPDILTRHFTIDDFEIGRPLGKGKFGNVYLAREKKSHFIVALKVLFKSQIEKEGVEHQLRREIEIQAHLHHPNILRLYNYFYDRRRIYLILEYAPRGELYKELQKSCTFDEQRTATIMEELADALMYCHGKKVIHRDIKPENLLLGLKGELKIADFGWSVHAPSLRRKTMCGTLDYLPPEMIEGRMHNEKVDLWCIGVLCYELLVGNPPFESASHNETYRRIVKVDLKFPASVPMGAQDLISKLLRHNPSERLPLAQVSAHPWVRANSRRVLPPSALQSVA

ABL2 (human) = ABL2 (human) (UniProt P42684)
Sequence of ABL2 (human) (P42684 whole entry, looked up): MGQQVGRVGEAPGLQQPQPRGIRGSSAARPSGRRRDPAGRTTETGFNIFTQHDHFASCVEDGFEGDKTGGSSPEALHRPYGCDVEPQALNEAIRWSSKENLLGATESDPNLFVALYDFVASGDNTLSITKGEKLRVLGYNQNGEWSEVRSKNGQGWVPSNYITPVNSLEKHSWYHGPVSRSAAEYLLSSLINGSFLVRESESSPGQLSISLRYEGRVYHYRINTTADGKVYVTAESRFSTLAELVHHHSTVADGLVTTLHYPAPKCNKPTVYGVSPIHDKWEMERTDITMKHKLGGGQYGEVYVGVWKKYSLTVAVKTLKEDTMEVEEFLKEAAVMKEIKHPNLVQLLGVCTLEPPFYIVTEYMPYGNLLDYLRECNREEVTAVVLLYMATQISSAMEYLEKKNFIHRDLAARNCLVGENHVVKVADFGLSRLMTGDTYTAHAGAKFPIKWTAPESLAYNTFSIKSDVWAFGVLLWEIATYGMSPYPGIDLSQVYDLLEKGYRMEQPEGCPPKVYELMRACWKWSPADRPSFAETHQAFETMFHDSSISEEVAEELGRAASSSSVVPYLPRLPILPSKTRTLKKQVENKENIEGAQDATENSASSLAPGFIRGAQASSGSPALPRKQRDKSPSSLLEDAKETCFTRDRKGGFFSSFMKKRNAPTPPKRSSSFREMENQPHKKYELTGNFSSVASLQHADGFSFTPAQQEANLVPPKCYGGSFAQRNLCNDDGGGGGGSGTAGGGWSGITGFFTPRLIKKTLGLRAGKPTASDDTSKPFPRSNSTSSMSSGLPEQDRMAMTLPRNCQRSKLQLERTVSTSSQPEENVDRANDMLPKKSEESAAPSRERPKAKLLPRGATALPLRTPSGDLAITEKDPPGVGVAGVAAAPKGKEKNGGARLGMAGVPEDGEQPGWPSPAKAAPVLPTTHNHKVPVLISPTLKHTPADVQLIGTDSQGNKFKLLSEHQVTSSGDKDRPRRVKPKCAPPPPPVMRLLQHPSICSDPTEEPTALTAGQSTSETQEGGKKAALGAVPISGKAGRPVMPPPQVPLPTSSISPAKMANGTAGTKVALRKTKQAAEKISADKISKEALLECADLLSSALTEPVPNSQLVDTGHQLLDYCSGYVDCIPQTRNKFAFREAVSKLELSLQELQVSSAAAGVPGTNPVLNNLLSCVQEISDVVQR

NTRK1 (human) = NTRK1 (human) (UniProt P04629)
DYRK1B (human) = DYRK1B (human) (UniProt Q9Y463)
MAP2K2 (human) = MAP2K2 (human) (UniProt P36507)
FYN (human) = FYN (human) (UniProt P06241)
Sequence of FYN (human) (P06241 whole entry, looked up): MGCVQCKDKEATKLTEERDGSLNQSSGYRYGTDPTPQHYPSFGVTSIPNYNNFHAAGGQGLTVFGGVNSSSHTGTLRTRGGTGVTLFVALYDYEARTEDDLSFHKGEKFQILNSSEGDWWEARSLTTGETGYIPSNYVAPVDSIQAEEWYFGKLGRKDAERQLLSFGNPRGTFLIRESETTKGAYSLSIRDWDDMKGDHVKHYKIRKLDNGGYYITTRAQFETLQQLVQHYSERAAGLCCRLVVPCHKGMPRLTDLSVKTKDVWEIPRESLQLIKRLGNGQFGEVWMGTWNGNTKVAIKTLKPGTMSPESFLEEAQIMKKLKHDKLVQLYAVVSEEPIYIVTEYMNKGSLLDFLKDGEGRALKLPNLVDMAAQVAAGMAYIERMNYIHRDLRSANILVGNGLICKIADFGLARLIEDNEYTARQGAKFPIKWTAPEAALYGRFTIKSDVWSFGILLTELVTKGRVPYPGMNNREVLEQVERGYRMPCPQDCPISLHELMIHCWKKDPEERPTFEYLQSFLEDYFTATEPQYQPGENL

MYO3B (human) = MYO3B (human) (UniProt Q8WXR4)
[1] = target: TYK2 JH2 pseudokinase (human) (UniProt P29597)
AKT1 (human) = AKT1 (human) (UniProt P31749)
DSTYK (human) = DSTYK (human) (UniProt Q6XUX3)
YSK4 (human) = YSK4 (human) (UniProt Q56UN5)
TEK (human) = TEK (human) (UniProt Q02763)
DMPK (human) = DMPK (human) (UniProt Q09013)
RIOK2 (human) = RIOK2 (human) (UniProt Q9BVS4)
CASK (human) = CASK (human) (UniProt O14936)
SIK3 (human) = SIK3 (human) (UniProt Q9Y2K2)
EPHB3 (human) = EPHB3 (human) (UniProt P54753)
SNRK (human) = SNRK (human) (UniProt Q9NRH2)
EPHA4 (human) = EPHA4 (human) (UniProt P54764)
PIP4K2C (human) = PIP4K2C (human) (UniProt Q8TBX8)
NEK3 (human) = NEK3 (human) (UniProt P51956)
EPHA7 (human) = EPHA7 (human) (UniProt Q15375)
MAP4K1 (human) = MAP4K1 (human) (UniProt Q92918)

Sequence of SRPK2 (human) (P78362 whole entry, looked up): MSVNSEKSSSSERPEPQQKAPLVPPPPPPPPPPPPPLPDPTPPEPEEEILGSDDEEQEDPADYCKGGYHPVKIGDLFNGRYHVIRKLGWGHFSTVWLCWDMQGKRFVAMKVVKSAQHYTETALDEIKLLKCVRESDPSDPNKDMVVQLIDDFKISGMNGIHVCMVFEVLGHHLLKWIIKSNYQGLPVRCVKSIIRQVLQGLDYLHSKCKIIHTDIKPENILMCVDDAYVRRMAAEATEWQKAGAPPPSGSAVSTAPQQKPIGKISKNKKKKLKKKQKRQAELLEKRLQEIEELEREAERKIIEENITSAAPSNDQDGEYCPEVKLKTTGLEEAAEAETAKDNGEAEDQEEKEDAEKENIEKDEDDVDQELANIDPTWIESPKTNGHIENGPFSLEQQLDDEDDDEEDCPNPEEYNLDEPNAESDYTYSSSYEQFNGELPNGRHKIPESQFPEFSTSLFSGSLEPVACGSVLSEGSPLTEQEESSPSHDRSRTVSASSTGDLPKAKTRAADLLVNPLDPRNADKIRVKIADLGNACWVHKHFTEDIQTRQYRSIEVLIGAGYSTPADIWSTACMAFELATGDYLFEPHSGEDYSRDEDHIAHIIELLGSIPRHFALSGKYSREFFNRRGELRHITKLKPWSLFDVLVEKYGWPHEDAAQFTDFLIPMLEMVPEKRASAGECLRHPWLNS

## COc1cc2ncnc(-n3nc(-c4ccccn4)nc3N)c2cc1OC
CAMK1G (human)
  kinase still bound, per cent of control: 34%
SRPK2 (human)
  kinase still bound, per cent of control: 88%
MAP4K2 (human)
  kinase still bound, per cent of control: 43%
CSNK1E (human)
  kinase still bound, per cent of control: 1.6%
ACVR2A (human)
  kinase still bound, per cent of control: 66%
CLK2 (human)
  kinase still bound, per cent of control: 1.8%
TSSK1B (human)
  kinase still bound, per cent of control: 60%
MARK2 (human)
  kinase still bound, per cent of control: 53%
CDK13 (human)
  kinase still bound, per cent of control: 17%
PTK6 (human)
  kinase still bound, per cent of control: 51%
PDGFRB (human)
  kinase still bound, per cent of control: 3.4%
BLK (human)
  kinase still bound, per cent of control: 8.8%
SRPK3 (human)
  kinase still bound, per cent of control: 38%
PTK2 (human)
  kinase still bound, per cent of control: 80%
ERBB3 (human)
  kinase still bound, per cent of control: 9%
AAK1 (human)
  kinase still bound, per cent of control: 6.9%
NTRK3 (human)
  kinase still bound, per cent of control: 100%
AURKB (human)
  kinase still bound, per cent of control: 0.4%
ABL2 (human)
  kinase still bound, per cent of control: 33%
NTRK1 (human)
  kinase still bound, per cent of control: 48%
DYRK1B (human)
  kinase still bound, per cent of control: 2%
MAP2K2 (human)
  kinase still bound, per cent of control: 74%
FYN (human)
  kinase still bound, per cent of control: 25%
MYO3B (human)
  kinase still bound, per cent of control: 100%
[1]
  kinase still bound, per cent of control: 0%
AKT1 (human)
  kinase still bound, per cent of control: 100%
DSTYK (human)
  kinase still bound, per cent of control: 19%
YSK4 (human)
  kinase still bound, per cent of control: 0.45%
TEK (human)
  kinase still bound, per cent of control: 45%
DMPK (human)
  kinase still bound, per cent of control: 100%
RIOK2 (human)
  kinase still bound, per cent of control: 2%
CASK (human)
  kinase still bound, per cent of control: 26%
SIK3 (human)
  kinase still bound, per cent of control: 83%
EPHB3 (human)
  kinase still bound, per cent of control: 56%
SNRK (human)
  kinase still bound, per cent of control: 47%
EPHA4 (human)
  kinase still bound, per cent of control: 34%
PIP4K2C (human)
  kinase still bound, per cent of control: 1.1%
NEK3 (human)
  kinase still bound, per cent of control: 87%
EPHA7 (human)
  kinase still bound, per cent of control: 18%
MAP4K1 (human)
  kinase still bound, per cent of control: 56%
